{"source": "patent US10648012B2", "about": "“Assay for inhibitors of equilibrative or concentrative nucleoside transporters” (ALBERT EINSTEIN COLLEGE OF MEDICINE OF YESHIVA UNIVERSITY, priority 2013, dated 2020)", "key": {"[1]": {"target": "T1, PfENT1 (Plasmodium falciparum, UniProt Q8IDM6)", "T1 sequence (Q8IDM6 1-422)": "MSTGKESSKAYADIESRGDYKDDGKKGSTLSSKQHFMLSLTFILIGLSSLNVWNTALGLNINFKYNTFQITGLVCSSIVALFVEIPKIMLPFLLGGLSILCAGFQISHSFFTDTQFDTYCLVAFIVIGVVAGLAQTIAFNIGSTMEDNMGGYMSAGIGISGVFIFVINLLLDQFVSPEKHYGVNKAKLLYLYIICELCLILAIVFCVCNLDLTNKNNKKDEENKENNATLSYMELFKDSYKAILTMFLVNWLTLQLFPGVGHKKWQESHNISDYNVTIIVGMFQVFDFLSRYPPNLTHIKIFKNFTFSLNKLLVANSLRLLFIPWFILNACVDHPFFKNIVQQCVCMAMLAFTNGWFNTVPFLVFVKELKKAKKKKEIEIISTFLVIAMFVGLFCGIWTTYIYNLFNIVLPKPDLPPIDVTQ", "conditions": "cited from earlier work"}, "[2]": {"system": "PfENT1-expressing fui1Δ yeast", "experiment": "5-FUrd cytotoxicity assay, growth (OD600) of PfENT1-expressing fui1Δ yeast", "assay_type": "cell-based", "conditions": "Saccharomyces cerevisiae, 9.5 h", "protocol": "(§1) Concentration dependence of 5-FUrd cytotoxic effects on PfENT1-expressing fui1Δ S. cerevisiae and on the parental fui1Δ strain: To determine the dose-response relationship for killing by 5 FUrd, 200 μl cultures in rich media (yeast extract, peptone, 2% dextrose, YPD) were inoculated with 3×10^6 cells/ml of PfENT1-expressing fui1Δ yeast and fui1Δ yeast. The cultures were grown in 96-well microtiter plates at 30° C., without shaking, in the absence of and in the presence of increasing concentrations of 5-FUrd (range 0.1-1,000 μM). After 570 minutes, the OD600 was measured using a BioRad Benchmark Plus microplate reader to determine the extent of cell growth. The OD600 was plotted as a function of drug concentration and the IC50 for 5-FUrd was calculated (FIG. 2). […] Though yeast grow optimally with constant aeration, a similar 5-FUrd IC50 was obtained for PfENT1-expressing fui1Δ yeast whether the plate was shaken continuously at 200 rpm or unshaken for 570 minutes of growth (IC50=9 μM)."}, "[3]": {"system": "fui1Δ yeast", "experiment": "5-FUrd cytotoxicity assay, growth (OD600) of parental fui1Δ yeast", "assay_type": "cell-based", "conditions": "Saccharomyces cerevisiae, 9.5 h, read-out: 5-FUrd IC50 for killing", "protocol": "as §1"}, "[4]": {"system": "WT yeast", "experiment": "5-FUrd IC50 on WT yeast after storage of the 5-FUrd sample", "assay_type": "cell-based", "conditions": "Saccharomyces cerevisiae, 90 h", "protocol": "as §1\n5-FUrd Stability. Stability of 5-FUrd under the assay conditions is essential. The assay will involve yeast growth in the presence of 5-FUrd for 10-16 hrs at 30° C. To test 5-FUrd stability a sample of 5-FUrd was split into two aliquots. One was stored at −20° C. and the other at 30° C. for 90 hrs. The 5-FUrd IC50 was then determined for WT yeast as described above. […]"}, "[5]": {"target": "T1, PfENT1", "experiment": "Inhibition of [3H]-adenine uptake by PfENT1-expressing Xenopus oocytes", "assay_type": "cell-based", "conditions": "increasing concentrations of 5-FUrd"}, "[6]": {"experiment": "5-FUrd stability under the assay growth conditions", "assay_type": "physicochemical", "conditions": "30° C.", "protocol": "5-FUrd Stability. Stability of 5-FUrd under the assay conditions is essential. The assay will involve yeast growth in the presence of 5-FUrd for 10-16 hrs at 30° C. To test 5-FUrd stability a sample of 5-FUrd was split into two aliquots. One was stored at −20° C. and the other at 30° C. for 90 hrs. The 5-FUrd IC50 was then determined for WT yeast as described above. […] Thus, 5-FUrd is stable under the assay growth conditions for at least 90 hrs. The assay should only require 10-16 hrs of growth, so 5-FUrd is stable on the timescale of the assay."}}, "note": "Like-named read-outs stand apart in the source and are kept apart here."}
{"smiles": "O=[N+]([O-])c1ccc(CSc2ncnc3c2ncn3[C@@H]2O[C@H](CO)[C@@H](O)[C@H]2O)cc1", "note": "[p-nitrobenzylthioinosine]", "values": [{"measurement": "inhibition of PfENT1", "setting": "[1]", "value": "do not inhibit"}]}
{"smiles": "O=c1[nH]c(=O)n([C@@H]2O[C@H](CO)[C@@H](O)[C@H]2O)cc1F", "note": "[5-FUrd, 5-fluorouridine]", "values": [{"measurement": "IC50", "setting": "[2]; read-out: 5-FUrd IC50, shaken versus unshaken comparison", "value": 9, "unit": "µM"}, {"measurement": "IC50", "setting": "[2]; read-out: 5-FUrd IC50 for killing", "value": 12, "unit": "µM"}, {"measurement": "IC50", "setting": "[3]", "value": 6400, "unit": "µM"}, {"measurement": "IC50", "setting": "[4]; 5-FUrd sample stored at 30° C. for 90 hrs, n=3", "value": "60 ± 3", "unit": "µM"}, {"measurement": "IC50", "setting": "[4]; 5-FUrd sample stored at −20° C. for 90 hrs", "value": "46 ± 2", "unit": "µM"}, {"measurement": "Ki", "setting": "[5]", "value": 1100, "unit": "µM"}, {"measurement": "time stable under the assay growth conditions", "setting": "[6]", "value": "at least 90 hrs"}]}
{"smiles": "OCCN(CCO)c1nc(N2CCCCC2)c2nc(N(CCO)CCO)nc(N3CCCCC3)c2n1", "note": "[dipyridamole]", "values": [{"measurement": "inhibition of PfENT1", "setting": "[1]", "value": "do not inhibit"}]}
{"smiles": "COc1cc(C(=O)OCCCN2CCCN(CCCOC(=O)c3cc(OC)c(OC)c(OC)c3)CC2)cc(OC)c1OC", "note": "[dilazep]", "values": [{"measurement": "inhibition of PfENT1", "setting": "[1]", "value": "do not inhibit"}]}
